Legend:
[1] = refractive index (Na D-line) (dimensionless); wn = mass fraction of the nth substance listed; conditions: 101 kPa, Liquid, Standard Abbe refractometry
[2] = wn = mass fraction of the nth substance listed; conditions: 101 kPa, Liquid; for viscosity: Concentric cylinders viscometry; for mass density: Vibrating tube method

CC(O)CN (stereo not given) [1-amino-2-propanol] + O
Conditions	mass density, [2] [kg/m3]	refractive index, [1]	viscosity, [2] [mPa·s]
298.15 K, w1 = 0.05	998.574	1.33891	1.088
298.15 K, w1 = 0.1	999.182	1.34586	1.296
298.15 K, w1 = 0.15	999.932	1.35281	1.569
298.15 K, w1 = 0.2	1001.03	1.35955	1.944
298.15 K, w1 = 0.25	1002.46	1.36649	2.444
303.15 K, w1 = 0.05	997.087	1.33825	0.9733
303.15 K, w1 = 0.1	997.57	1.34506	1.148
303.15 K, w1 = 0.15	998.142	1.35201	1.372
303.15 K, w1 = 0.2	999.018	1.35875	1.678
303.15 K, w1 = 0.25	1000.2	1.3656	2.083
308.15 K, w1 = 0.05	995.386	1.33749	0.8761
308.15 K, w1 = 0.1	995.747	1.34432	1.027
308.15 K, w1 = 0.15	996.159	1.35092	1.215
308.15 K, w1 = 0.2	996.833	1.35767	1.468
308.15 K, w1 = 0.25	997.78	1.36461	1.799
313.15 K, w1 = 0.05	993.483	1.33668	0.7937
313.15 K, w1 = 0.1	993.738	1.34343	0.9275
313.15 K, w1 = 0.15	994.005	1.35012	1.084
313.15 K, w1 = 0.2	994.489	1.35672	1.295
313.15 K, w1 = 0.25	995.218	1.36347	1.574
318.15 K, w1 = 0.05	991.399	1.33578	0.7225
318.15 K, w1 = 0.1	991.552	1.34259	0.8362
318.15 K, w1 = 0.15	991.681	1.34908	0.9756
318.15 K, w1 = 0.2	991.989	1.35573	1.155
318.15 K, w1 = 0.25	992.514	1.36228	1.384
323.15 K, w1 = 0.05	989.143	1.33483	0.6617
323.15 K, w1 = 0.1	989.197	1.34154	0.7617
323.15 K, w1 = 0.15	989.197	1.34799	0.8864
323.15 K, w1 = 0.2	989.338	1.35454	1.039
323.15 K, w1 = 0.25	989.679	1.36109	1.231
328.15 K, w1 = 0.05	986.722	1.33384	0.6112
328.15 K, w1 = 0.1	986.682	1.3405	0.6988
328.15 K, w1 = 0.15	986.564	1.34705	0.8113
328.15 K, w1 = 0.2	986.546	1.3533	0.943
328.15 K, w1 = 0.25	986.711	1.35985	1.102
333.15 K, w1 = 0.05	984.143	1.3328	0.5696
333.15 K, w1 = 0.1	984.015	1.33936	0.647
333.15 K, w1 = 0.15	983.779	1.34581	0.75
333.15 K, w1 = 0.2	983.615	1.35211	0.8659
333.15 K, w1 = 0.25	983.616	1.35861	0.9934
338.15 K, w1 = 0.05	981.41	1.33173	0.5381
338.15 K, w1 = 0.1	981.198	1.33832	0.6053
338.15 K, w1 = 0.15	980.853	1.34462	0.6919
338.15 K, w1 = 0.2	980.549	1.35092	0.8
338.15 K, w1 = 0.25	980.398	1.35753	0.9015
343.15 K, w1 = 0.05	978.537	1.33057	0.5152
343.15 K, w1 = 0.1	978.237	1.33713	0.5701
343.15 K, w1 = 0.15	977.785	1.34343	0.6478
343.15 K, w1 = 0.2	977.354	1.34968	0.7408
343.15 K, w1 = 0.25	977.059	1.35614	0.8266

Reference: the NIST ThermoML archive (doi:10.1021/je300938w)
